Assay results reported in patent US8372885B2, “Organic compounds and their uses” (Novartis AG, priority 2008, dated 2013).

These compounds were tested against T1, P. aeruginosa LpxC (Pseudomonas aeruginosa, UniProt P47205) (assay: biochemical). Settings: 1 nM P. aeruginosa LpxC, 30 min pre-incubation, 2 μM UDP-3-O-(R-3-hydroxydecanoyl)-GlcNAc, pH 7.5, room temperature; read-out: IC50 (LpxC inhibitory activity).
T1 construct: made in house
T1 sequence (P47205 1-303): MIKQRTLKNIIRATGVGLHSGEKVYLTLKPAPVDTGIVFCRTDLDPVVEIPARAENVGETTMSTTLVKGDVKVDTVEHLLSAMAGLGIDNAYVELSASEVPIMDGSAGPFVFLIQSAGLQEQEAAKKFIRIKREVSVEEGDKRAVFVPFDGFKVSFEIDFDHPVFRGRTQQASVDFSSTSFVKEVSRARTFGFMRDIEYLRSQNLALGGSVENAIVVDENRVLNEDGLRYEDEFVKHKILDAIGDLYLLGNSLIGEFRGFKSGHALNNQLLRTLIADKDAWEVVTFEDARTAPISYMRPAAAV
Excerpt: The LC-MS/MS method for quantitation of LpxC product was developed using an Agilent 1200 Capillary HPLC system coupled to an Applied Biosystems MDS Sciex 4000QTRAP mass spectrometer. Both instruments are controlled using the Applied Biosystems MDS Sciex Analyst software. LpxC reaction product (UDP-3-O—(R-3-hydroxyacyl)-glucosamine) was produced by hydrolysis of LpxC substrate catalyzed by P. a. LpxC and purified using reversed phase chromatography on a Phenomenex Luna C18(2) 4.6×50 mm column. An LpxC product calibration curve was generated to evaluate the sensitivity and dynamic range of the LC-MS/MS method. Briefly, compounds are pre-incubated with 1 nM P. aeruginosa LpxC for 30 min. at room temperature. Reactions are initiated by the addition of 2 μM UDP-3-O—(R-3-hydroxydecanoyl)-GlcNAc. Reactions are conducted in a 96-well plate with a total volume of 100 μL in each well containing 50 mM Sodium phosphate pH 7.5, 0.005% Trition X-100 for 20 min at room temperature. After quenching with 1.8% HOAc (10 μL of a 20% HOAc added to each well), reaction mixtures are analyzed using the LC-MS/MS method and peak areas are transformed into product concentration using a LpxC product calibration curve. […] For IC50 determinations, peak areas are converted to percent inhibition in Microsoft Excel. Percent inhibition values are plotted vs. log compound concentration using XLfit. Data is fit to the four-parameter logistic equation using the non-linear regression algorithm in XLfit to return the IC50 and hill slope values.
`CC#CCOC1CCC(C(=O)N[C@H](C(=O)NO)[C@@H](C)N)CC1` (single isomer, unassigned) [Example 7] was tested, and the IC50 was 380 nM.
In the case of `CC#CCOc1ccc(C(=O)NC(C(=O)NO)C2(N)CC2)cc1` (stereo not shown) [Example 1, N-(1-(1-aminocyclopropyl)-2-(hydroxyamino)-2-oxoethyl)-4-(but-2-ynyloxy)benzamide], the IC50 is reported as 13.7 nM.
Compound `CC(C)(C)C#CCOc1ccc(C(=O)NC(C(=O)NO)C(C)(C)N)cc1` (stereo not shown) [Example 4, N-(3-amino-1-(hydroxyamino)-3-methyl-1-oxobutan-2-yl)-4-(4,4-dimethylpent-2-ynyloxy)benzamide] has an IC50 of 23 nM.
With `CC(C)(O)C#CCOc1ccc(C(=O)NC(C(=O)NO)C(C)(C)N)cc1` (stereo not shown) [Example 8, N-(3-amino-1-(hydroxyamino)-3-methyl-1-oxobutan-2-yl)-4-(4-hydroxy-4-methylpent-2-ynyloxy)benzamide] the IC50 was 183 nM.
Work on `CC#CCOc1ccc(C(=O)N[C@H](C(=O)NO)[C@@H](C)N)c(F)c1` [Example 9, N-((1S,2R)-2-Amino-1-hydroxycarbamoyl-propyl)-4-but-2-ynyloxy-2-fluoro-benzamide] yielded an IC50 of 74.5 nM.
`CC#CCOc1ccc(C(=O)N[C@@H](CCCN)C(=O)NO)cc1` [Example 10, N-((S)-4-Amino-1-hydroxycarbamoyl-butyl)-4-but-2-ynyloxy-benzamide] was tested, and the IC50 was 2700 nM.
Compound `CC(C)(N)[C@H](NC(=O)c1ccc(OCC#CC2=CCCC2)cc1)C(=O)NO` [Example 11, N-((S)-2-Amino-1-hydroxycarbamoyl-2-methyl-propyl)-4-(3-cyclopent-1-enyl-prop-2-ynyloxy)-benzamide] has an IC50 of 1 nM.
`CC(C)(N)[C@H](NC(=O)c1ccc(OCC#CC2=CCOCC2)cc1)C(=O)NO` [Example 12, N-((S)-2-Amino-1-hydroxycarbamoyl-2-methyl-propyl)-4-[3-(3,6-dihydro-2H-pyran-4-yl)-prop-2-ynyloxy]-benzamide] gave an IC50 of 2 nM.
`CC(C)(N)[C@H](NC(=O)c1ccc(OC/C=C/C#CCCO)cc1)C(=O)NO` [Example 15, N-((S)-2-Amino-1-hydroxycarbamoyl-2-methyl-propyl)-4-((E)-7-hydroxy-hept-2-en-4-ynyloxy)-benzamide] was tested, and the IC50 was 2 nM.
Compound `C[C@@H](N)[C@H](NC(=O)c1ccc(OCC#Cc2ccccc2)cc1)C(=O)NO` [Example 17] has an IC50 of 1 nM.
`C[C@@H](N)[C@H](NC(=O)c1ccc(C#CCOc2ccccc2)cc1)C(=O)NO` [Example 18] showed an IC50 of 7.6 nM.
With `CCC#CCOc1ccc(C(=O)N[C@H](C(=O)NO)[C@@H](C)N)cc1` [Example 19] the IC50 was 7.6 nM.
In the case of `CC#CCOc1ccc(C(=O)N[C@H](C(=O)NO)C(C)(C)O)cc1` [Example 20], the IC50 is reported as 6.5 nM.
Work on `CCC#CCOc1ccc(C(=O)NC(C(=O)NO)C(C)(C)N)cc1` (stereo not shown) [Example 21] yielded an IC50 of 1 nM.
`CC#CCOc1ccc(-c2ccc(C(=O)N[C@H](C(=O)NO)C(C)(C)N)cc2)cc1` [Example 22] was tested, and the IC50 was 0.7 nM.
`CCCC#CCOc1ccc(C(=O)N[C@H](C(=O)NO)[C@@H](C)N)cc1` [Example 23] showed an IC50 of 1.5 nM.
For `C#CC(C)(C)Oc1ccc(C(=O)NC(C(=O)NO)C(C)(C)N)cc1` (stereo not shown) [Example 24], the IC50 was 1.4 nM.
Compound `CC#CCCOc1ccc(C(=O)NC(C(=O)NO)C(C)(C)N)cc1` (stereo not shown) [Example 25] has an IC50 of 35.1 nM.
`CC#CC(C)(C)Oc1ccc(C(=O)N[C@H](C(=O)NO)[C@@H](C)N)cc1` [Example 27] gave an IC50 of 73.3 nM.
With `CCCCCC#CCNc1ccc(C(=O)N[C@@H](CN)C(=O)NO)cn1` [Example 28] the IC50 was 55.7 nM.
With `C#CCOc1ccc(C(=O)N[C@H](C(=O)NO)[C@@H](C)N)cc1` [Example 29] the IC50 was 38.9 nM.
Work on `C[C@@H](N)[C@H](NC(=O)c1ccc(OCCCC#Cc2ccccc2)cc1)C(=O)NO` [Example 30] yielded an IC50 of 35.6 nM.
Work on `CC#CC(C)Oc1ccc(C(=O)N[C@H](C(=O)NO)[C@@H](C)N)cc1` (stereo partly shown) [Example 31] yielded an IC50 of 141 nM.
Compound `CC#CC(C)Oc1ccc(C(=O)N[C@H](C(=O)NO)[C@@H](C)N)cc1` (stereo partly shown) [Example 32] has an IC50 of 231 nM.
Work on `C[C@@H](N)[C@H](NC(=O)c1ccc(OCC#CC2CC2)cc1)C(=O)NO` [Example 34] yielded an IC50 of 6 nM.
Compound `CC#CCOc1ccc(C(=O)N[C@H](C(=O)NO)C(C)(C)N)cc1F` [Example 35] has an IC50 of 2.6 nM.
Compound `CC#CCOc1ccc(C(=O)NC(C(=O)NO)C(C)(C)N)c(F)c1F` (stereo not shown) [Example 36] has an IC50 of 15.9 nM.
Work on `CCCCOc1ccc(C(=O)N[C@H](C(=O)NO)C(C)(C)N)cc1` [Example 37] yielded an IC50 of 4 nM.
For `CC(C)(N)[C@H](NC(=O)c1ccc(OCC#CC2CC2)cc1)C(=O)NO` [Example 38], the IC50 was 0.4 nM.
`CC#CCOc1ccc(C(=O)NC(C(=O)NO)C(C)(C)N)cc1OC` (stereo not shown) [Example 39] gave an IC50 of 151 nM.
`CC#CCOc1c(Cl)cc(C(=O)NC(C(=O)NO)C(C)(C)N)cc1Cl` (stereo not shown) [Example 40] showed an IC50 of 34.6 nM.
Work on `C=C/C=C/COc1ccc(C(=O)NC(C(=O)NO)C(C)(C)N)cc1` (stereo not shown) [Example 41] yielded an IC50 of 2.1 nM.
`CC#CCNc1ccc(C(=O)N[C@H](C(=O)NO)[C@@H](C)N)cc1` [Example 42] gave an IC50 of 27.3 nM.
In the case of `C=C(C)C#CCOc1ccc(C(=O)N[C@H](C(=O)NO)C(C)(C)N)cc1` [Example 43], the IC50 is reported as 1 nM.
`COCC#CCOc1ccc(C(=O)N[C@H](C(=O)NO)[C@@H](C)N)cc1` [Example 44] gave an IC50 of 56.9 nM.
With `CC(C)(N)C(NC(=O)c1ccc(OCC#CC2CCCC2)cc1)C(=O)NO` (stereo not shown) [Example 45] the IC50 was 2.2 nM.
For `C#C/C=C/COc1ccc(C(=O)N[C@H](C(=O)NO)[C@@H](C)N)cc1` [Example 46], the IC50 was 5.5 nM.
Work on `CC(C)=CCOc1ccc(C(=O)NC(C(=O)NO)C(C)(C)N)cc1` (stereo not shown) [Example 47] yielded an IC50 of 3.7 nM.
For `CC(C)=CCC/C(C)=C/COc1ccc(C(=O)N[C@H](C(=O)NO)[C@@H](C)N)cc1` [Example 48], the IC50 was 10.2 nM.
`C[C@@H](N)[C@H](NC(=O)c1ccc(OCCC2CC2)cc1)C(=O)NO` [Example 49] gave an IC50 of 24.6 nM.
With `C[C@@H](N)[C@H](NC(=O)c1ccc(OCCCC2CC2)cc1)C(=O)NO` [Example 50] the IC50 was 13.1 nM.
With `CC#CCOc1ccc(C(=O)N[C@@H](CN)C(=O)NO)cc1` [Example 51] the IC50 was 128 nM.
For `CC#CCSc1ccc(C(=O)NC(C(=O)NO)C(C)(C)N)cc1` (stereo not shown) [Example 52], the IC50 was 4.4 nM.
For `CC(C)C#CCOc1ccc(C(=O)N[C@H](C(=O)NO)C(C)(C)N)cc1` [Example 53], the IC50 was 5.5 nM.
For `CC#CCOc1ccc(C(=O)NC(C(=O)NO)C(C)(C)N)cc1C` (stereo not shown) [Example 54], the IC50 was 16.7 nM.
With `CC#CCOc1ccc(C(=O)NC(C(=O)NO)C(C)(C)N)cc1Cl` (stereo not shown) [Example 55] the IC50 was 9.9 nM.
Work on `CC#CCOc1c(F)cc(C(=O)NC(C(=O)NO)C(C)(C)N)cc1F` (stereo not shown) [Example 56] yielded an IC50 of 4.1 nM.
Work on `C/C=C/COc1ccc(C(=O)N[C@H](C(=O)NO)[C@@H](C)N)cc1` [Example 57] yielded an IC50 of 30 nM.
`C[C@@H](N)[C@H](NC(=O)c1ccc(OCC#CC2CCC2)cc1)C(=O)NO` [Example 58] showed an IC50 of 6.5 nM.
Compound `CC#CCOc1ccc(C(=O)N[C@H](C(=O)NO)C(C)(C)NC)cc1` [Example 59] has an IC50 of 3.2 nM.
For `CC(C)=CC#CCOc1ccc(C(=O)N[C@H](C(=O)NO)[C@@H](C)N)cc1` [Example 60], the IC50 was 8 nM.
`C[C@@H](N)[C@H](NC(=O)c1ccc(OCC#Cc2ccoc2)cc1)C(=O)NO` [Example 61] was tested, and the IC50 was 3 nM.
Compound `CC(C)(N)[C@H](NC(=O)c1ccc(OCC#CC2=CCNCC2)cc1)C(=O)NO` [Example 62] has an IC50 of 14 nM.
`CC(C)(C)C#C/C=C/COc1ccc(C(=O)N[C@H](C(=O)NO)C(C)(C)N)cc1` [Example 63] showed an IC50 of 0.05 nM.
Compound `CCCCC#C/C=C/COc1ccc(C(=O)N[C@H](C(=O)NO)C(C)(C)N)cc1` [Example 64] has an IC50 of 0.2 nM.
For `Cc1ccc(C#CCOc2ccc(C(=O)N[C@H](C(=O)NO)C(C)(C)N)cc2)cc1` [Example 66], the IC50 was 1240 nM.

Same assay, conditions: IC50 (LpxC inhibitory activity), 1 nM P. aeruginosa LpxC, 30 min pre-incubation, 2 μM UDP-3-O-(R-3-hydroxydecanoyl)-GlcNAc, pH 7.5, room temperature
`CC#CCOc1ccc(C(=O)N[C@H](C(=O)NO)[C@H](N)C2CC2)cc1` [Example 5, N-((1R,2S)-1-amino-1-cyclopropyl-3-(hydroxyamino)-3-oxopropan-2-yl)-4-(but-2-ynyloxy)benzamide] was tested, and the IC50 was 124 nM.
With `CC#CCOc1ccc(C(=O)N[C@H](C(=O)NO)[C@@H](N)C(F)(F)F)cc1` [Example 6, N-((2S,3R)-3-amino-4,4,4-trifluoro-1-(hydroxyamino)-1-oxobutan-2-yl)-4-(but-2-ynyloxy)benzamide] the IC50 was 13.5 nM.
`CC#CCOc1ccc(C(=O)N[C@H](C(=O)NO)[C@@H](C)N)cc1` [Example 16] was tested, and the IC50 was 8.7 nM.
`CC#CCOc1ccc(C(=O)N[C@@H](C(=O)NO)[C@@H](N)C(C)C)cc1` [Example 26] showed an IC50 of 70 nM.
`CC#CCOc1ccc(C(=O)N[C@H](C(=O)NO)[C@H](N)C(C)C)cc1` [Example 33] showed an IC50 of 268 nM.
